Where two headings read alike, the source gives them in different places.
Columns and labels:
S1P1/EDG1 [1] = target: T1, S1P1/EDG1 (Homo sapiens, UniProt P21453); test: S1P1 CRE-bla CHOK1 reporter assay, inhibition of Forskolin induced cAMP; type: cell-based
Procedure, shortened: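 Read-out is a FRET β-lactamase substrate (2 h, room temperature) after 4 h, 37 °C compound treatment under 2 μM Forskolin in stable S1P1-transfected CRE-bla CHO-K1 cells. Ten-point curves; non-linear regression gives EC50 for inhibition of Forskolin-stimulated cAMP.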

S1P1 R120A/E121A = target: T2, S1P1 R120A/E121A (Homo sapiens, UniProt P21453, E121A/R120A); test: Phosphorylated-ERK1/2 In Cell Western, S1P1 R120A/E121A mutant in CHOK1 cells; type: cell-based
T2 construct: expressed in transfected cells; host or cells: CHOK1
T2 sequence (P21453 whole entry R120A/E121A): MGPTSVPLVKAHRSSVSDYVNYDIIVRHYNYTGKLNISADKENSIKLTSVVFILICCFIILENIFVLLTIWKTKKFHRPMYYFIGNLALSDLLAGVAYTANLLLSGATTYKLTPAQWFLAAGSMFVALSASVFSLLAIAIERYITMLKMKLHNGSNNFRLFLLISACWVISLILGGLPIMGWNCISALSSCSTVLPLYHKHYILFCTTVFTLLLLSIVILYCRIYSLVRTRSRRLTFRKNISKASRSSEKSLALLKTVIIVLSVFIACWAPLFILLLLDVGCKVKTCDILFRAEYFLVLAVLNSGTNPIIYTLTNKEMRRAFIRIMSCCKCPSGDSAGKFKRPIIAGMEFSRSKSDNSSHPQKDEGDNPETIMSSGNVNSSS
Protocol: (§1) A. Quick-change mutagenesis with PfuTurbo DNA polymerase (Stratagene) was conducted using S1P1/pcDNA3.1 (Missouri S&T cDNA Resource Centre) as the template. Primers were as follows: […]
(§2) PCR conditions were 15 cycles with the following parameters: 95° C. 30 sec, 58° C. 30 sec, 68° C. for 60 sec. All constructs were sequence verified.
(§3) CHOK1 cells were transfected using Fugene (Roche). Stably expressing mixed pools were selected with 2 mg/ml G418. Expression of functional S1P1/EDG1 receptor was confirmed by cell surface FACS with a S1P1 antibody (R&D Systems, clone 218713). Stable pools were seeded at 40,000 cells/well in a clear bottom 96-well tray, and incubated at 37° C. in 5% CO2 for 18 hrs. Cells were serum-starved in FreeStyle 293 medium (Invitrogen) for 4-6 h, then incubated for 5 min with a dose response of compound, in duplicate. Cells were fixed with 4% paraformaldehyde for 20 min, permeabilized with 0.1% Triton X-100 in PBS (4×5 min washes) and blocked for 1 h in Odyssey Blocking Buffer (LI-COR). All incubations were at room temperature. Cells were incubated for 18 h at 4° C. in Rabbit anti-Phospho-ERK1/2 (Cell Signaling #4377) and Mouse anti-ERK1/2 (Cell Signaling #9107) both diluted 1:800 in Odyssey Blocking Buffer. Plates were washed with 0.1% Tween-20 in PBS and then incubated with Odyssey Blocking Buffer containing IRDye 680-labeled goat anti-rabbit antibody (#926-32221; diluted 1/500) and IRDye 800CW-labeled goat anti-mouse antibody (#926-32210; diluted 1/1000). Plates were washed with 0.1% Tween-20 in PBS, all liquid was removed from the wells and the plates were scanned using a LICOR Odyssey scanner. The phospho-ERK1/2 signal was normalized to the ERK1/2 signal. Data was analyzed by non-linear regression using GraphPad Prism to determine the EC50 of binding.

S1P1 N101A = target: T3, S1P1 N101A (Homo sapiens, UniProt P21453, N101A); test: Phosphorylated-ERK1/2 In Cell Western, S1P1 N101A mutant in CHOK1 cells; type: cell-based
T3 construct: expressed in transfected cells; host or cells: CHOK1
T3 sequence (P21453 whole entry N101A): as the sequence (P21453 whole entry R120A/E121A) above, with N101A, A120R, A121E counted along it
Protocol: as §1, §2, §3

S1P1 W269L = target: T4, S1P1 W269L (Homo sapiens, UniProt P21453, W269L); test: Phosphorylated-ERK1/2 In Cell Western, S1P1 W269L mutant; type: cell-based
T4 construct: expressed in transfected cells; host or cells: CHOK1
T4 sequence (P21453 whole entry W269L): as the sequence (P21453 whole entry R120A/E121A) above, with A120R, A121E, W269L counted along it
Protocol: as §3, with “The phospho-ERK1/2 signal was normalized to the ERK1/2 signal.” left out, “binding. […]” for “binding.”

S1P1/EDG1 [2] = target: T1, S1P1/EDG1; test: Phosphorylated-ERK1/2 In Cell Western, wild type S1P1 in CHOK1 cells; type: cell-based
Protocol: as §3, with “The phospho-ERK1/2 signal was normalized to the ERK1/2 signal.” left out

S1P2 = target: T5, S1P2 (Homo sapiens, UniProt O95136); test: Specificity over other S1P receptors: S1P2 CRE-bla CHOK1 reporter assay; type: cell-based; settings: S1P2 CRE-bla CHOK1, without Forskolin; read-out: S1P2 agonist value (EC50)
T5 construct: expressed in transfected cells; host or cells: CRE-bla CHOK1
T5 sequence (O95136 whole entry, species assumed): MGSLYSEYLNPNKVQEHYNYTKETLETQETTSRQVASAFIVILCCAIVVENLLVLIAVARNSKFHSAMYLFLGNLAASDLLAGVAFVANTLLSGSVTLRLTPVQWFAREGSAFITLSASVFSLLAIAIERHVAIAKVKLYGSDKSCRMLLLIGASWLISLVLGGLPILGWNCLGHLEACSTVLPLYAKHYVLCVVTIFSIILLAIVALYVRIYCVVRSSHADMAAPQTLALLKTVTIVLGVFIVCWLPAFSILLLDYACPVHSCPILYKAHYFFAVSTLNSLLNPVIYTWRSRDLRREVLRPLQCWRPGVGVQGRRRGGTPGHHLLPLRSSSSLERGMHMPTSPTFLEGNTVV
Protocol: (§4) Cells were seeded into 384-well black wall/clear bottom plates at 10^4 cells/well/19.5 μl assay media (DMEM-phenol free, 0.5% charcoal/dextran stripped serum, 2 mM glutamine, 0.1 mM NEAA, 1 mM Na-Pyruvate, 25 mM Hepes) and incubated for 18 hrs at 37° C. in 5% CO2. Dose response curves (10-point) were generated in 10 mM Hepes, 0.1% Pluronic F127, in the presence of Forskolin. Cells were treated with 0.5 μl compound in the presence of 2 μM Forskolin for 4 hrs at 37° C. The FRET-based β-lactamase fluorescent substrate (LiveBLAzer™-FRET B/G Loading Kit CC4-AM; Invitrogen) was prepared according to manufacturer's directions, and incubated with cells for 2 hrs at room temperature. Plates were read at Ex:410/Em:458 and Ex:410/Em:522, and the response ratio determined. Data was analyzed by non-linear regression to determine the EC50 for inhibition of Forskolin induced cAMP.
(§5) To assess compound specificity on other S1P receptors the following cell lines were used: S1P2 CRE-bla CHOK1, S1P3-Gα15 NFAT-bla HEK293T (Invitrogen), S1P4-bla TANGO U2OS (Invitrogen), S1P5-bla TANGO U2OS (Invitrogen). The same assay set up for S1P1 was used but without Forskolin. S1P4 and S1P5 assays were performed in FreeStyle Expression medium (Invitrogen). S1P5 cells were incubated for 48 hrs in prior to treatment with compound.

S1P3 = target: T6, S1P3 (Homo sapiens, UniProt Q99500); test: Specificity over other S1P receptors: S1P3-Gα15 NFAT-bla HEK293T reporter assay; type: cell-based; settings: without Forskolin, read-out: S1P3 agonist value (EC50)
T6 construct: host or cells: NFAT-bla HEK293T
T6 sequence (Q99500 whole entry): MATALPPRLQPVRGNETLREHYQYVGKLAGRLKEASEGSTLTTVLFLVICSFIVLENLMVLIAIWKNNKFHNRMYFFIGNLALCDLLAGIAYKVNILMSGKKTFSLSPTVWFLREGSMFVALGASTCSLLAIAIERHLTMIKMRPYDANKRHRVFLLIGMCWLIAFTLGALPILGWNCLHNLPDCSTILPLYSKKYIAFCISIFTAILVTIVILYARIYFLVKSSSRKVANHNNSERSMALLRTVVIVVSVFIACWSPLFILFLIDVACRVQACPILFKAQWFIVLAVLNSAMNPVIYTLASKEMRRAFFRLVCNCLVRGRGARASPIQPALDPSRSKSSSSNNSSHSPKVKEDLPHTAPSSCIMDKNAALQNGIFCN
Protocol: as §4, §5

S1P4 = target: T7, S1P4 (Homo sapiens, UniProt O95977); test: Specificity over other S1P receptors: S1P4-bla TANGO U2OS assay; type: cell-based; settings: read-out: S1P4 agonist value (EC50)
T7 construct: Tango fusion (own knowledge: protease cleavage site plus GAL4-VP16 transcription factor at the receptor's C-terminus); host or cells: U2OS (Tango -bla)
T7 sequence (O95977 1-384): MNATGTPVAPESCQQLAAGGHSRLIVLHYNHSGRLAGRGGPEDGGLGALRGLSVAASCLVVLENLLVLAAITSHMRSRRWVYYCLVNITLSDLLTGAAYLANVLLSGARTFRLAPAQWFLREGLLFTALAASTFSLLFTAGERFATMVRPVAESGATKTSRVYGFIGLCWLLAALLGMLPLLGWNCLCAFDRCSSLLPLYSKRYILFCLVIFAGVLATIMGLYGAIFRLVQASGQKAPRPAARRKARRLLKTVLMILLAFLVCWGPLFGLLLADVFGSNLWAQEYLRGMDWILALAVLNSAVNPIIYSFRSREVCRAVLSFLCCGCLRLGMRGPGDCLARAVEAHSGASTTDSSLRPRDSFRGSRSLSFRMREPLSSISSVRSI
Protocol: as §4, §5

S1P5 = target: T8, S1P5 (Homo sapiens, UniProt Q9H228); test: Specificity over other S1P receptors: S1P5-bla TANGO U2OS assay; type: cell-based; settings: read-out: S1P5 agonist value (EC50)
T8 construct: Tango fusion (own knowledge: protease cleavage site plus GAL4-VP16 transcription factor at the receptor's C-terminus); host or cells: U2OS (Tango -bla)
T8 sequence (Q9H228 whole entry, the tested form may be a part): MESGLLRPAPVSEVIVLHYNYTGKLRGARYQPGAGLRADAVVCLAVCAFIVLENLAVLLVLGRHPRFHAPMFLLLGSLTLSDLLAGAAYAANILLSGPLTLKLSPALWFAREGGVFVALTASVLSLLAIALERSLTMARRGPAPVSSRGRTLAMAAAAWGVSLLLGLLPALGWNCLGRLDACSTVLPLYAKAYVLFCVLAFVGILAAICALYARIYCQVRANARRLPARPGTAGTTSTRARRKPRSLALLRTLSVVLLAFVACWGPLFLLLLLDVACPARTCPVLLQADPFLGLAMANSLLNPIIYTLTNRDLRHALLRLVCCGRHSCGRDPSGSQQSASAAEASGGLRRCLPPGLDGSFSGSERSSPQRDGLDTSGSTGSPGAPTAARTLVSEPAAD
Protocol: as §4, §5

[3] = test system: CD4 or CD8 positive T cells; test: Lymphopenia in mice; type: in vivo; settings: female C57BL6 mice, 1 mg/kg oral gavage, area under the effect curve over 24 h
Protocol: In mice: Female C57BL6 mice (Simonsen Laboratories, Gilroy Calif.) were housed in an ALAAC accredited facility and the research was approved by the facilities Institutional Animal Care and Use Committee (IACUC). The animals were acclimated to the laboratory for at least 5 days prior to initiation of experiments. Mice (n=3/compound/time-point) were dosed by oral gavage with 1 mg/kg compound formulated in a vehicle consisting of 5% DMSO/5% Tween 20 and 90% 0.1N HCl. Control mice were dosed PO with the vehicle. Terminal whole blood samples were collected from isoflurane anesthetized mice by cardiac puncture into EDTA. Whole blood was incubated with rat anti-mouse CD16/CD32 (Mouse BD Fc Block, #553141), PE-Rat anti-mouse CD45R/B220 (BD #553089), APC-Cy7-Rat anti-mouse CD8a (BD #557654), and Alexa Fluor647-Rat anti-mouse CD4 (BD #557681) for 30 min on ice. Red blood cells were lysed using BD Pharm Lyse Lysing buffer (#555899) and white blood cells were analyzed by FACS. Lymphopenia was expressed as the % of white blood cells that were CD4 or CD8 positive T cells. The overall lymphopenia response over 24 h was estimated by calculating the area under the effect curve (AUEC) using the linear trapezoidal rule.

[4] = Evaluation of therapeutic index in rats: 5 or 14 day toxicology study, lung to body weight ratio; type: in vivo, Sprague-Dawley rat
Protocol: All studies were conducted in non-fasted male and female Sprague-Dawely rats (Simonsen Laboratories). Rats were housed in an AAALAC accredited facility and the research was approved by the facilities Institutional Animal Care and Use Committee (IACUC). The animals were acclimated to the laboratory for at least 5 days prior to initiation of experiments.
(§6) The compounds listed in Table 6 were formulated as suspensions in a vehicle consisting of 0.5% carboxymethyl cellulose (Acros Organics) in purified water (pH adjusted to ˜2.2 with hydrochloric acid). The same formulation was used in the rat lymphopenia and toxicology studies described below. The concentration of each compound in suspension was verified to be within ±10% of the target concentration by HPLC-UV.
In the toxicology studies, three male and three female rats per group were assigned to dosing groups using body weight based randomization. A control group in each study received vehicle. All animals were dosed orally by gavage on 5 or 14-consecutive days at a dose volume of 5 mL/kg/day. The animals were observed daily for any manifestations of adverse effect. Twenty-four hours after the final study dose, the rats were anesthetized with isoflurane and a terminal blood sample was taken by intra-cardiac puncture for hematology and clinical chemistry evaluation (IDEXX Laboratories, Sacramento, Calif.). The lungs with trachea were collected, weighed, and then prepared for histology by perfusion with 10% neutral buffered formalin via the trachea. The internally fixed lungs were then preserved in 10% neutral buffered formalin and submitted for histological examination (IDEXX).
The dose of each compound resulting in a 10% increase in the lung to terminal body weight ratio was estimated for each compound by linear interpolation. The therapeutic index was estimated as the ratio of the dose producing 10% lung weight increase to the dose producing 50% T-Cell depletion.
(§7) The dose producing a 10% increase in lung to body weight ratio was interpolated from a plot of dose versus lung to body weight. The lymphopenia response was measured 24 hours following the final dose of a 3-5 day multiple dose regimen.

peripheral T-cell counts = test: Lymphopenia in rats, 3-5 day multiple dose regimen; type: in vivo, rat; settings: female rats, oral, 24 h after final dose of a 3-5 day multiple dose regimen
Protocol: In rats: Female rats (Simonsen Laboratories, Gilroy Calif.) were housed in an ALAAC accredited facility and the research was approved by the facilities Institutional Animal Care and Use Committee (IACUC). The animals were acclimated to the laboratory for at least 5 days prior to initiation of experiments. Rats (n=3/compound/time-point) were dosed by oral gavage with 1 mg/kg compound formulated in a vehicle consisting of 5% DMS0/5% Tween 20 and 90% 0.1N HCL. Control rats were dosed PO with the vehicle. Whole blood was collected from isoflurane anesthetized rats via the retro-orbital sinus and terminal samples were collected by cardiac puncture into EDTA. Whole blood was incubated with mouse anti-rat CD32 (BD #550271), PE-mouse anti-rat CD45R/B220 (BD #554881), PECy5-mouse anti-rat CD4 (BD #554839), and APC-mouse anti-rat CD8a (eBioscience #17-0084) for 30 minutes on ice. Red blood cells were lysed using BD Pharm Lyse Lysing buffer (#555899) and white blood cells were analyzed with a BD FACSArray. Lymphopenia was expressed as the % of white blood cells that were CD4 or CD8 positive T cells. The overall lymphopenia response over 24 h was estimated by calculating the area under the effect curve (AUEC) using the linear trapezoidal rule.
as §6
Prior to the conduct of toxicology studies, the effect of three to five daily doses of each compound on peripheral T-cell counts of female rats was determined (see lymphopenia measurements in rats above). In these lymphopenia studies, blood samples were collected onto EDTA at intervals after the final study dose. The collection times were not identical for each study, however, all studies included a sample collected 24 hours after the final dose. The lymphopenia data was used as a biomarker to select equally pharmacologically active doses for the subsequent toxicology study. […] The high dose in the toxicology study represented a ≧20-fold increment over the low dose.
as §7

[5] = agonist activity range, S1P1 CRE-bla CHOK1, 2 μM Forskolin, read-out: S1P1 ACTIVITY

T1 sequence (P21453 whole entry): as the sequence (P21453 whole entry R120A/E121A) above, with A120R, A121E counted along it

| SMILES | EC50 (S1P1/EDG1 [1]; [5]) [nM] | Effect of mutation on binding of compound (in words) (S1P1 R120A/E121A; S1P1 R120A/E121A) | Fold change in EC50 compared to wild type S1P1 (S1P1 R120A/E121A; S1P1 variant R120A/E121A, phospho-ERK1/2) | Effect of mutation on binding of compound (in words) (S1P1 N101A; S1P1 N101A) | Fold change in EC50 compared to wild type S1P1 (S1P1 N101A; S1P1 variant N101A, phospho-ERK1/2) | Effect of mutation on binding of compound (in words) (S1P1 W269L) | Phosphorylation of ERK1/2 by S1P1 agonist (in words) (S1P1/EDG1 [2]) | EC50 (S1P1/EDG1 [1]; S1P1 CRE-bla CHOK1, with Forskolin, read-out: S1P1 agonist value (EC50)) [nM] | EC50 (S1P2) [µM] | EC50 (S1P3) [µM] | EC50 (S1P4) [µM] | EC50 (S1P5) [µM] | Mouse Lymphopenia (AUEC) [3] | Dose Resulting in 10% increase in lung weight ([4]; rats, oral, 5 or 14 consecutive days, interpolated from dose versus lung to body weight) [mg/kg] | TI 14 days ([4]; therapeutic index: dose producing 10% lung weight increase / dose producing 50% T-cell depletion, 14 day toxicology study in rats) | Dose Producing 50% lymphopenia (peripheral T-cell counts) [mg/kg] |
| --- | --- | --- | --- | --- | --- | --- | --- | --- | --- | --- | --- | --- | --- | --- | --- | --- |
| CC(C)Oc1ccc(-c2nc(-c3cccc4c3CCC4NCCC(=O)O)no2)cc1C#N (racemic) [Compound 38] | < 0.05 | diminishes binding | 11 | had no effect on binding | 2 | abolishes binding | induce phosphorylation of ERK1/2 |  |  |  |  |  |  |  |  |  |
| CCOc1ccc(-c2nc(-c3cccc4c3CCC4O)no2)cc1OCC (racemic) [Compound 254, (+/−)-4-(5-(3,4,diethoxyphenyl)-1,2,4-oxadiazol-3-yl)-2,3-dihydro-1H-inden-1-ol, reference compound] | 0.05 to 0.5 |  |  |  |  |  |  | 0.16 | 5.5 | 5.27 | 5.5 | 0.0568 | 84 |  |  |  |
| CC(C)Oc1ccc(-c2nc(-c3cccc4c3CC[C@@H]4NCCO)no2)cc1C#N [Compound 86, (S)-5-(3-(1-(2-hydroxyethylamino)-2,3-dihydro-1H-inden-4-yl)-1,2,4-oxadiazol-5-yl)-2-isopropoxy benzonitrile] |  |  |  |  |  |  |  |  | 9.56 | 9.94 | 4.19 | 0.0552 | 1342 | 2.7 | 18 | 0.15 |

— patent US9388147B2 (Receptos, Inc., priority 2009, dated 2016)
